From US12503473B2, “Triazolopyrimidine compounds and their use in treating cancer” (Dizal (Jiangsu) Pharmaceutical Co., Ltd., priority 2018, dated 2025) come the findings set out here.

Experiment [1] deals with NCI H358 subcutaneous xenograft. Briefly: Human lung cancer xenograft model, VEGFR TKI combination. The class given is in vivo, female nude mice. The method, then: The in vivo efficacy of MCT4 inhibitors has been tested in human xenograft models. The NSCLC cell line NCI H358 can be grown as a subcutaneous xenograft in female nude mice and tumour volume calculated from bilateral caliper measurements. For efficacy studies three million NCI H358 cells were inoculated sub-cutaneously onto the left flank of the animal in a volume of 0.1 ml serum free media (RPMI) and matrigel. Animals were assigned into treatment groups 14 days after cell implantation and received either AZD2171 (3 mg/kg QD) (Wedge et al., (2005) Cancer Res. 65:4389-4400), a compound of Formula (I) (100 mg/kg BID) or the combination of both by oral gavage. A vehicle control of 0.5% hydroxy propyl methyl cellulose/0.1% Tween 80 was dosed twice daily given orally. Dosing was continued for 17 days and tumour volume, body weight and tumour condition were recorded twice weekly for the duration of the study.
In general terms: Xenograft models place foreign cells or tissue in a host animal.

The subject of experiment [2] is MC38 MCT1 KO murine colorectal cell line. Description: Mouse syngeneic model, αPD-1 antibody combination (second study, FIG. 5). The class given is in vivo, female C57·B16 mice. The note with it: Day 13. From the text:
The in vivo efficacy of MCT4 inhibitors has been tested in murine syngeneic models. To test the selective impact of MCT4 inhibitors of Formula (I), MCT1 was knocked-out (KO) of the MC38 syngeneic cell line model using CRISPR precise genome editing. The MC38 MCT1 KO murine colorectal cell line can be grown sub-cutaneously in female C57·B16 mice and tumour volume calculated from bilateral caliper measurements. For efficacy studies, ten million cells were inoculated subcutaneously onto the left flank of the animal in a volume of 0.1 ml serum free DMEM media. Animals were randomised by bodyweight at the time of cell implantation and treatment started the following day. […] In both studies dosing was continued for up to 6 weeks and tumour volume, body weight and tumour condition were recorded three times weekly. […]
Again, individual tumour growth profiles are shown with animals taken off study using time to event criteria based on a maximum tumour volume of 1.5 cm^3, tumour condition or animal welfare limits. Due to animals reaching the time to event endpoint at different times during the later stages of the experiment GeoMean percentage inhibition values were calculated on Day 13.

For another experiment, the target named is T1, MCT1 (Homo sapiens, UniProt P53985).
T1 construct: a human erythroleukemia line predominantly expressing MCT1, a small amount of MCT2 and no MCT4; host or cells: K562
T1 sequence (P53985 1-500): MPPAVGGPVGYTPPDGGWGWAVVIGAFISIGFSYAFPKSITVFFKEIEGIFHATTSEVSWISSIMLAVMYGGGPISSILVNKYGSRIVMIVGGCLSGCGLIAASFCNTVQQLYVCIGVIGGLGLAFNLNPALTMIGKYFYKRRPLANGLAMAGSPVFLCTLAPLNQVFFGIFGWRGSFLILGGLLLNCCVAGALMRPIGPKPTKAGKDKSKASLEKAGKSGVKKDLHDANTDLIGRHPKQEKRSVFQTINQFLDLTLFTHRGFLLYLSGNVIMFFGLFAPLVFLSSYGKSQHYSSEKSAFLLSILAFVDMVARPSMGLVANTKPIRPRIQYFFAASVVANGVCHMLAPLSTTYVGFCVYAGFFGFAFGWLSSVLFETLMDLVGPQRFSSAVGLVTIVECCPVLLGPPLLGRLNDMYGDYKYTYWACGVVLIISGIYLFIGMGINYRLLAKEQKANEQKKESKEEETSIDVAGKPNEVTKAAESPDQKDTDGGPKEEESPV
Description: Assay (c): FLIPR BCECF lactate influx in K562 cells. The class given is cell-based. The conditions noted are these: mean of at least three repeats, read-out: MCT1 FLIPR pIC50 (K562) (converted).

For experiment [3], the system named is MC38 MCT1 KO murine colorectal cell line. Description: Mouse syngeneic model, αCTLA4 antibody combination (first study, FIG. 4). Type of experiment: in vivo, female C57·B16 mice. The conditions noted are these: Day 15. From the text:
The in vivo efficacy of MCT4 inhibitors has been tested in murine syngeneic models. To test the selective impact of MCT4 inhibitors of Formula (I), MCT1 was knocked-out (KO) of the MC38 syngeneic cell line model using CRISPR precise genome editing. The MC38 MCT1 KO murine colorectal cell line can be grown sub-cutaneously in female C57·B16 mice and tumour volume calculated from bilateral caliper measurements. For efficacy studies, ten million cells were inoculated subcutaneously onto the left flank of the animal in a volume of 0.1 ml serum free DMEM media. Animals were randomised by bodyweight at the time of cell implantation and treatment started the following day. In the first of these studies shown in FIG. 4, monotherapy treatment arms received either a compound of Formula (I) (100 mg/kg BID) by oral gavage or αCTLA4 antibody (anti-CTLA-4 9D9 mlgG1 antibody, described in WO200712373) (10 mg/kg twice weekly) intraperitoneally. Combination groups consisted of a compound of Formula (I) (100 or 10 mg/kg PO BID) with αCTLA4 antibody (10 mg/kg IP twice weekly). In the second of these studies shown in FIG. 5, monotherapy treatment arms received either a compound of Formula (I) (30 mg/kg PO BID) with αPD-1 antibody (from Bio X Cell, Catalogue #BE0146, Lot 665417s1, 6.78 mg/mL) (10 mg/kg IP twice weekly). In both studies dosing was continued for up to 6 weeks and tumour volume, body weight and tumour condition were recorded three times weekly. Vehicle was 0.5% hydroxy propyl methyl cellulose/0.1% Tween 80 given twice daily by oral gavage with PBS/a given twice weekly intraperitoneally in both studies.
Individual tumour growth profiles are shown with animals taken off study using time to event criteria based on a maximum tumour volume of 1.5 cm^3, tumour condition or animal welfare limits. Due to animals coming off study during the later stages of the experiment, GeoMean percentage inhibition values were calculated on Day 15. […] Monotherapy αCTLA4 (10 mg/kg) was ineffective with 6.1%^NS.

Experiment [4] concerns the target T2, MCT4 (Homo sapiens, UniProt O15427).
T2 sequence (O15427 1-465): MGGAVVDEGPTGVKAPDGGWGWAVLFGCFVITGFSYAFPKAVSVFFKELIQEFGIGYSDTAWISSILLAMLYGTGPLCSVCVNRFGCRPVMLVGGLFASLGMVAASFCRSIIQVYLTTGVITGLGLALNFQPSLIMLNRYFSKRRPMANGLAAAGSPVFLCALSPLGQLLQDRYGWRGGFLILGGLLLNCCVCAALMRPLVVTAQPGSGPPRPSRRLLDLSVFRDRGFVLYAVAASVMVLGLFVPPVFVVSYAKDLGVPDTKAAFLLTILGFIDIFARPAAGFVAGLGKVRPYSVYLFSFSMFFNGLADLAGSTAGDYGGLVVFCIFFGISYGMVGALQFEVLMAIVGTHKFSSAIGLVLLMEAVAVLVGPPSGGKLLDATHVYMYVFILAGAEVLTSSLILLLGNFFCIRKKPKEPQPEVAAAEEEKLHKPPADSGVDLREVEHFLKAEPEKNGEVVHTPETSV
Description: Assay (a): lactate efflux from SK-Br-3 cells (lactate in media, 4 h). Type of experiment: cell-based. The conditions noted are these: mean of at least three repeats (Example 32, marked *, two repeats), read-out: MCT4 lactate efflux pIC50 (SKBR3) (converted). Also on record: a natively glycolytic human breast adenocarcinoma line predominantly expressing MCT4; host or cells: SK-Br-3. The method, then:
Assay plates were lidded and incubated for 4 hours at 37° C. and 5% CO2.

Experiment [5] addresses T2, MCT4. Description: Assay (d): FLIPR BCECF lactate influx in INS-1 MCT4 cells. Type of experiment: cell-based, rat. Also on record: expressed in transfected cells. The note with it: INS-1 cells stably expressing human MCT4; mean of at least three repeats; read-out: MCT4 FLIPR pIC50 (INS-1) (converted). The method, then:
INS-1 MCT4 cells were generated through transfection of the parental cell background with the following DNA sequence, inserted into a pcDNA3.1 (ThermoFisher #V79020) mammalian expression vector:
The resultant cell pool was continually cultured at 37° C. and 5% CO2 under antibiotic selection in RPMI (Sigma #R0883) medium containing 1% L glutamine (Sigma #G7513), 10% FBS (Sigma #F7524), 10 mM [final] […] An individual clone was selected and expanded before being cryopreserved in a number of individual vials for continued use. Prior to testing in the biological assay, an individual INS-1 MCT4 cryovial was defrosted and continually passaged over a number of weeks—in the Geneticin selection media described previously—to obtain the requesite cell number.

Experiment [6] has as its target T2, MCT4. Description: cell-based.

Bounds are passed on as bounds.

With `COc1cc2c(Oc3ccc4[nH]c(C)cc4c3F)ncnc2cc1OCCCN1CCCC1` [AZD2171, reference compound], in experiment [1] (AZD2171 alone 3 mg/kg QD oral, 17 days dosing, p<0.001), the “tumour regression compared to the vehicle group” value is given as 33%.

With `Cc1nc2nc(C)c(O[C@@H]3CCN(c4ccc(-c5ccc(CN6CCOCC6)nn5)cc4)C3)c(C)n2n1` [Example 62, (R)-4-((6-(4-(3-((2,5,7-trimethyl-[1,2,4]triazolo[1,5-a]pyrimidin-6-yl)oxy)pyrrolidin-1-yl)phenyl)pyridazin-3-yl)methyl)morpholine], the tumour regression in experiment [1] (combination of AZD2171 (3 mg/kg QD) with Example 62 (100 mg/kg BID), oral, 17 days, p<0.001 vs control, p=0.013 vs AZD2171 alone) amounted to 72%. Also, the “GeoMean percentage growth inhibition vs vehicle control” value in experiment [2] (Example 62 30 mg/kg PO BID with αPD-1 antibody 10 mg/kg IP twice weekly, p≤0.001) worked out at 82.3%; in experiment [2] (Example 62 monotherapy 30 mg/kg PO BID, NS), 30.1%; in experiment [3] (Example 62 10 mg/kg PO BID with αCTLA4 antibody 10 mg/kg IP twice weekly, p≤0.01), 67.4%; in experiment [3] (Example 62 100 mg/kg PO BID with αCTLA4 antibody 10 mg/kg IP twice weekly, p≤0.001, p=0.0311 vs Example 62 alone), 82.2%; in experiment [3] (Example 62 monotherapy 100 mg/kg BID PO, p≤0.05) it was 60.0%. Besides, at MCT1, the IC50 is greater than 25100 nM.

For the molecule `Cc1nc2nc(C)c(O[C@@H]3CCN(c4ccc(-c5ccc(CN6CCOCC6)cn5)cn4)C3)c(C)n2n1` [Example 74, (R)-4-((6′-(3-((2,5,7-trimethyl-[1,2,4]triazolo[1,5-a]pyrimidin-6-yl)oxy)pyrrolidin-1-yl)-[2,3′-bipyridin]-5-yl)methyl)morpholine], the IC50 is 2 nM on MCT4 [4], 2 nM on MCT4 [5], greater than 25100 nM on MCT1 and 10 nM at MCT4 [6].

`Cc1nc2nc(C)c(O[C@@H]3CCN(c4ccc(-c5ccc(CN6CCOCC6)nc5)cn4)C3)c(C)n2n1` [Example 75, (R)-4-((6′-(3-((2,5,7-trimethyl-[1,2,4]triazolo[1,5-a]pyrimidin-6-yl)oxy)pyrrolidin-1-yl)-[3,3′-bipyridin]-6-yl)methyl)morpholine]: the IC50 on MCT4 [4] was 3.16 nM; on MCT4 [5] it was 3.16 nM; on MCT1, greater than 25100 nM; against MCT4 [6] it was 12.6 nM.

`Cc1nc2nc(C)c(C[C@@H]3CCN(c4cnc(-c5ccc(CN6CCCC6)cn5)cn4)C3)c(C)n2n1` [Example 81, (R)-2,5,7-trimethyl-6-((1-(5-(5-(pyrrolidin-1-ylmethyl)pyridin-2-yl)pyrazin-2-yl)pyrrolidin-3-yl)methyl)-[1,2,4]triazolo[1,5-a]pyrimidine]: the IC50 at MCT4 [4] was 3.16 nM; on MCT4 [5], 3.16 nM; at MCT1 it was 5010 nM; at MCT4 [6] it was 15.8 nM.

Regarding `Cc1nc2nc(C)c(O[C@@H]3CCN(c4ccc(-c5ccc(CN6CCCOCC6)nn5)cc4)C3)c(C)n2n1` [Example 84, (R)-4-((6-(4-(3-((2,5,7-trimethyl-[1,2,4]triazolo[1,5-a]pyrimidin-6-yl)oxy)pyrrolidin-1-yl)phenyl)pyridazin-3-yl)methyl)-1,4-oxazepane], the IC50 is 1 nM at MCT4 [4], 3.98 nM on MCT4 [5], greater than 25100 nM on MCT1 and 7.94 nM at MCT4 [6].

`Cc1nc2nc(C)c(O[C@@H]3CCN(c4ccc(-c5ccc(CN6CCCCCC6)nn5)cc4)C3)c(C)n2n1` [Example 85, (R)-6-((1-(4-(6-(azepan-1-ylmethyl)pyridazin-3-yl)phenyl)pyrrolidin-3-yl)oxy)-2,5,7-trimethyl-[1,2,4]triazolo[1,5-a]pyrimidine]: the IC50 at MCT4 [4] was 1.26 nM; at MCT4 [5], 6.31 nM; on MCT1, greater than 25100 nM; against MCT4 [6], 20 nM.
